Counter-ions that a name gives are not always drawn. Like-named read-outs stand apart in the source and are kept apart here.
Columns and labels:
[1] = molecular target: T1, SARS-CoV-2 PLpro (nsp3 1564–1878) (Severe acute respiratory syndrome coronavirus 2, UniProt P0DTD1); assay: biochemical; parameters: FRET-quenched peptide (Pro3) cleavage by PLpro, 10 min pre-incubation, slope over 20 min, normalised to no-compound control; conditions: low concentration screen, read-out: % of control remaining
[2] = molecular target: T1, SARS-CoV-2 PLpro (nsp3 1564–1878); assay: biochemical; parameters: FRET-quenched peptide (Pro3) cleavage by PLpro, 10 min pre-incubation, slope over 20 min, normalised to no-compound control; conditions: high concentration screen, read-out: % of control remaining
Description: The plates were organized with columns 3–22 containing the compounds; the remaining columns were used for reaction controls including substrate only and substrate with enzyme but no compound (Figure 3Aii). The PLpro enzyme was pre-incubated with the compounds for 10 min, and then the reaction was initiated by the addition of substrate. […] We incubated the inhibitors with PLpro before the enzymatic reaction so that the slow-binding inhibitors will not be missed out [21]. […] Fluorescence was read on a Spark multimode microplate reader (Tecan) with an excitation wavelength at 330 nm and emission wavelength at 420 nm. […] An amount of 5 µl of the enzyme was pre-incubated with compounds for 10 min before the addition of 15 µl substrate. Fluorescence was monitored at 2 min for 20 min with 3 min intervals giving a total of seven readings.

Compound OCCOCCN1CCN(C(c2ccccc2)c2ccccc2)CC1 [Decloxizine (dihydrochloride)] has a remaining activity at 1.25 µM ([1]; Well no.=8189) of 102% and a remaining activity at 3.75 µM ([2]; Well no.=8189) of 103%.
In the case of C[C@](N)(Cc1ccc(O)c(O)c1)C(=O)O [Methyldopa], the remaining activity at 1.25 µM ([1]; Well no.=1955) is reported as 92.2% and the remaining activity at 3.75 µM ([2]; Well no.=1955) is reported as 92.5%.
For Cc1ccc(OC[C@H](O)[C@@H](C)NC(C)C)c2c1CCC2 [ICI 118,551 hydrochloride], the remaining activity at 1.25 µM ([1]; Well no.=1113) was 100% and the remaining activity at 3.75 µM ([2]; Well no.=1113) was 102%.
O=c1c2ccccc2[nH]c(=S)n1CCN1CCC(=C(c2ccc(F)cc2)c2ccc(F)cc2)CC1 [Diacylglycerol Kinase Inhibitor II] showed a remaining activity at 1.25 µM ([1]; Well no.=597) of 93.5%, a remaining activity at 1.25 µM ([1]; Well no.=2369) of 98.2% and a remaining activity at 3.75 µM ([2]; Well no.=597) of 95.5%. For the same compound, the remaining activity at 3.75 µM ([2]; Well no.=2369) was 99.1%.
Work on CN1C(=O)[C@]23CC4=CC=C[C@H](O)[C@H]4N2C(=O)[C@@]1(CO)SS3 [Gliotoxin] yielded a remaining activity at 1.25 µM ([1]; Well no.=3323) of 94.1% and a remaining activity at 3.75 µM ([2]; Well no.=3323) of 95.5%.
Compound Oc1ccc(OC2CCCCO2)cc1 (centres unmarked) [Deoxyarbutin] has a remaining activity at 1.25 µM ([1]; Well no.=5166) of 103% and a remaining activity at 3.75 µM ([2]; Well no.=5166) of 101%.
Nc1ncnc2c1c(-c1cccc(OCc3ccccc3)c1)cn2C1CC(CN2CCCC2)C1 (stereo in doubt) [NVP-ADW742] was tested, and the remaining activity at 1.25 µM ([1]; Well no.=4629) was 95.7% and the remaining activity at 3.75 µM ([2]; Well no.=4629) was 93.2%.
COc1cc2c3cc1Oc1cc(ccc1O)C[C@@H]1c4c(cc(OC)c(O)c4Oc4ccc(cc4)C[C@@H]3N(C)CC2)CC[N+]1(C)C [(+)-Tubocurarine chloride] gave a remaining activity at 1.25 µM ([1]; Well no.=3471) of 103% and a remaining activity at 3.75 µM ([2]; Well no.=3471) of 104%.
Compound c1ccc(-c2n[nH]c3c2oc2ccccc23)cc1 [GTP-14564] has a remaining activity at 1.25 µM ([1]; Well no.=2417) of 104% and a remaining activity at 3.75 µM ([2]; Well no.=2417) of 105%.
Cc1ccc(-n2sc(=O)n(Cc3ccc(F)cc3)c2=O)cc1 [CCG 50014] showed a remaining activity at 1.25 µM ([1]; Well no.=5215) of 105% and a remaining activity at 3.75 µM ([2]; Well no.=5215) of 102%.
With CS(=O)(=O)c1ccc([C@H](O)[C@@H](COC(=O)CN)NC(=O)C(Cl)Cl)cc1 [Thiamphenicol glycinate] the remaining activity at 1.25 µM ([1]; Well no.=2025) was 109% and the remaining activity at 3.75 µM ([2]; Well no.=2025) was 108%.
For Cc1cc(C(C)(C)C)cc(C)c1CC1=NCCN1 [Xylometazoline hydrochloride], the remaining activity at 1.25 µM ([1]; Well no.=1484) was 96.8% and the remaining activity at 3.75 µM ([2]; Well no.=1484) was 96.2%.
In the case of O=C(O)C1=CCCN(CCON=C(c2ccccc2)c2ccccc2)C1 [NO-711 hydrochloride], the remaining activity at 1.25 µM ([1]; Well no.=1149) is reported as 92.4% and the remaining activity at 3.75 µM ([2]; Well no.=1149) is reported as 88.4%.
CN(C/C=C/C#CC(C)(C)C)Cc1cccc2ccccc12 [Terbinafine] gave a remaining activity at 1.25 µM ([1]; Well no.=1580) of 95% and a remaining activity at 3.75 µM ([2]; Well no.=1580) of 97.8%.
For CN1CCC(=C2c3ccccc3CCn3c(C=O)cnc32)CC1 [Alcaftadine], the remaining activity at 1.25 µM ([1]; Well no.=6573) was 94.6% and the remaining activity at 3.75 µM ([2]; Well no.=6573) was 91.1%.
Work on CC1=C(C(=O)O)N2C(=O)[C@@H](NC(=O)[C@H](N)C3=CCC=CC3)[C@H]2SC1 [Cephradine] yielded a remaining activity at 1.25 µM ([1]; Well no.=236) of 98.9% and a remaining activity at 3.75 µM ([2]; Well no.=236) of 100%.
With CN1CCC(=C2c3ccccc3C=Cc3ccccc32)CC1 [Cyproheptadine (hydrochloride sesquihydrate)] the remaining activity at 1.25 µM ([1]; Well no.=6185) was 97.8% and the remaining activity at 3.75 µM ([2]; Well no.=6185) was 95.9%.
CCCN1CCC[C@@H]2Cc3n[nH]cc3C[C@H]21 (racemic) was tested, and the remaining activity at 1.25 µM ([1]; Well no.=1461) was 91% and the remaining activity at 3.75 µM ([2]; Well no.=1461) was 88.7%.
Compound O=C(O)Cc1c[nH]c2ccc(O)cc12 [5-Hydroxyindole-3-acetic acid] has a remaining activity at 1.25 µM ([1]; Well no.=5974) of 102%, a remaining activity at 1.25 µM ([1]; Well no.=7351) of 103% and a remaining activity at 3.75 µM ([2]; Well no.=5974) of 101%. The remaining activity at 3.75 µM ([2]; Well no.=7351) was 102%.
In the case of COc1ccc(CN2C(=O)C(=O)c3cc(OC(F)(F)F)ccc32)cc1 [VU 0238429], the remaining activity at 1.25 µM ([1]; Well no.=8702) is reported as 97.3% and the remaining activity at 3.75 µM ([2]; Well no.=8702) is reported as 93.7%.
CCCCCCCCCC(=O)N[C@@H](Cc1c[nH]c2ccccc12)C(=O)N[C@H](CC(N)=O)C(=O)N[C@@H](CC(=O)O)C(=O)N[C@@H]1C(=O)NCC(=O)N[C@@H](CCCN)C(=O)N[C@@H](CC(=O)O)C(=O)N[C@H](C)C(=O)N[C@@H](CC(=O)O)C(=O)NCC(=O)N[C@H](CO)C(=O)N[C@@H]([C@H](C)CC(=O)O)C(=O)N[C@@H](CC(=O)c2ccccc2N)C(=O)O[C@@H]1C [Daptomycin] showed a remaining activity at 1.25 µM ([1]; Well no.=5201) of 98.3%, a remaining activity at 1.25 µM ([1]; Well no.=7796) of 104% and a remaining activity at 3.75 µM ([2]; Well no.=5201) of 100%. For the same compound, the remaining activity at 3.75 µM ([2]; Well no.=7796) was 105%.
c1cnc(N2CCN(Cc3ccc4c(c3)OCO4)CC2)nc1 [Piribedil.2HCl] was tested, and the remaining activity at 1.25 µM ([1]; Well no.=1841) was 96.6% and the remaining activity at 3.75 µM ([2]; Well no.=1841) was 95.4%.
Work on O=C(C1CCCCC1)N1CC(=O)N2CCc3ccccc3C2C1 (centres unmarked) [Praziquantel] yielded a remaining activity at 1.25 µM ([1]; Well no.=908) of 106%, a remaining activity at 1.25 µM ([1]; Well no.=2155) of 102% and a remaining activity at 3.75 µM ([2]; Well no.=908) of 104%. The remaining activity at 3.75 µM ([2]; Well no.=2155) was 100%.
CC(=O)NBr [N-Bromoacetamide] showed a remaining activity at 1.25 µM ([1]; Well no.=171) of 101% and a remaining activity at 3.75 µM ([2]; Well no.=171) of 98.1%.
With COc1cccc(N(C)C(=S)Oc2ccc3c(c2)CCCC3)n1 [Liranaftate] the remaining activity at 1.25 µM ([1]; Well no.=4672) was 101% and the remaining activity at 3.75 µM ([2]; Well no.=4672) was 101%.
C[C@@H]1[C@H](O)[C@@H](C)/C=C/C=C/C=C/C=C/C=C/C=C/C=C/[C@H](O[C@@H]2O[C@H](C)[C@@H](O)[C@H](N)[C@@H]2O)C[C@@H]2O[C@](O)(C[C@@H](O)C[C@@H](O)[C@H](O)CC[C@@H](O)C[C@@H](O)CC(=O)O[C@H]1C)C[C@H](O)[C@H]2C(=O)O [Amphotericin B] gave a remaining activity at 1.25 µM ([1]; Well no.=3470) of 101% and a remaining activity at 3.75 µM ([2]; Well no.=3470) of 98.9%.
Work on S=c1ccss1 [1,2-Dithiole-3-thione] yielded a remaining activity at 1.25 µM ([1]; Well no.=4139) of 93.1% and a remaining activity at 3.75 µM ([2]; Well no.=4139) of 94.1%.
Compound CCN(CC)C(=O)c1ccc(O)c(OC)c1 [Vanillic acid diethylamide] has a remaining activity at 1.25 µM ([1]; Well no.=644) of 97.3% and a remaining activity at 3.75 µM ([2]; Well no.=644) of 102%.
Cc1nc(N)sc1-c1ccnc(Nc2ccc(N3CCOCC3)cc2)n1 [CYC-116] showed a remaining activity at 1.25 µM ([1]; Well no.=2885) of 103% and a remaining activity at 3.75 µM ([2]; Well no.=2885) of 101%.
For CCCNC(C)C(=O)Nc1c(C)csc1C(=O)OC (centres unmarked) [Articaine HCl], the remaining activity at 1.25 µM ([1]; Well no.=5367) was 95.8% and the remaining activity at 3.75 µM ([2]; Well no.=5367) was 94.3%.
Work on Cc1onc(-c2ccccc2Cl)c1C(=O)N[C@@H]1C(=O)N2[C@@H]1SC(C)(C)[C@@H]2C(=O)O [Cloxacillin (sodium monohydrate)] yielded a remaining activity at 1.25 µM ([1]; Well no.=7556) of 101% and a remaining activity at 3.75 µM ([2]; Well no.=7556) of 103%.
Cn1nnc2c(C(N)=O)ncn2c1=O [Temozolomide] was tested, and the remaining activity at 1.25 µM ([1]; Well no.=1952) was 95% and the remaining activity at 3.75 µM ([2]; Well no.=1952) was 99.1%.
CCOC(=O)[C@H](CCc1ccccc1)N[C@@H](C)C(=O)N1CCC[C@H]1C(=O)O [Enalapril (maleate)] showed a remaining activity at 1.25 µM ([1]; Well no.=7638) of 93.9% and a remaining activity at 3.75 µM ([2]; Well no.=7638) of 94.6%.
